# Entries after “also recorded” stand apart in the source; their conditions may differ.
# Experiments:
# [1] = test system: α9-nAChR promoter; experiment: α9-nAChR promoter luciferase activity assay in MCF-7 cells; assay type: cell-based, human; conditions: EGCG 10 μM 24 h pretreatment, then Nic or E2 24 h
# Method: All α9-nAChR promoter—luciferase gene fusions were made in the pGL3-Basic vector (Promega, Madison, Wis., USA) by introducing the appropriate α9-nAChR promoter fragments into the polylinker upstream of the luciferase gene. These fragments were generated with restriction enzymes and cloned directly into pGL3-Basic or subcloned first in pBluescript and then transferred to pGL3-Basic. Deletion analysis of the most promoter-proximal region was performed by generating either appropriate restriction enzyme fragments or PCR fragments with suitable sense oligonucleotides and an antisense primer (5′-[…]-3′ (SEQ ID NO:1)) that anneals to the pGL3-Basic vector downstream of the site of transcription initiation.
# MCF-7 cells were plated in 6-well plates. Cells were transiently cotransfected the next day with 1.5 μg of PGL3-Basic plasmid containing the full-length α9-nAChR promoter and 0.1 μg of the RLTK plasmid (Promega) using an MP-100 microporator (Digital Bio), according to the manufacturer's instructions. After incubation for 24 h, the medium was changed to culture medium containing 10% FBS or 0.1% FB S with or without Nic. Cells were lysed 24 h later with 1× Reporter Lysis Buffer (Promega) and stored frozen at −20° C. overnight. Luciferase activity was determined by testing 50 μL of the cell lysate and 50 μL of the Luciferase Assay Reagent (Promega) using a HIDEX Chameleon Microplate Reader. Relative luciferase units were normalized to renilla luciferase from the same cell lysates. Each luciferase assay experiment was performed three times.
# [2] = test system: MCF-7 cells; experiment: Cell proliferation (MTT assay) in MCF-7 cells; assay type: cell-based, human
# Method: Human mammary gland epithelial adenocarcinomas (MCF7, MDA-MB-231, AU-565, MDA-MB-453, and BT-483) and normal human mammary gland epithelial fibrocystic cell lines (MCF-10A and HBL-100) were purchased from ATCC (American Type Culture Collection, Manassas, Va., USA). MCF-7, MDA-MB-231, and MDA-MB-453 cells were maintained in DMEM, whereas BT-483 cells were maintained in RPMI-1640. Cell growth, proliferation, and viability were determined by the 3-(4,5-dimethylthiazol-2-yl)-2,5-diphenyltetrazolium (MTT) assay. The formazan product was measured by absorbance at 540 nm.
# [3] = test system: p-AKT (Ser^473); experiment: phosphorylated AKT by immunoblotting in MCF-7 cells; assay type: cell-based, human; conditions: EGCG 10 μM 24 h pretreatment, then Nic 10 μM or E2 10 nM 24 h
# Method: To prepare protein samples, cells were washed once with ice-cold PBS and lysed on ice in cell lysis buffer (50 mM Tris-HCl, pH 8.0, 120 mM […], 0.5% Nonidet P-40, 100 mM sodium fluoride, and 200 μM sodium orthovanadate) containing protease inhibitors as described previously (Shih, Y. L., Liu, H. C., Chen, C. S., Hsu, C. H. et al., J. Agric. Food Chem. 2010, 58, 235-241). Protein (50 μg) from each sample was resolved by 12% SDS-polyacrylamide gel electrophoresis, transferred, and analyzed by Western blotting. Antibodies were purchased from the following vendors: anti-total AKT and protein A/G agarose beads were obtained from Santa Cruz Biotechnology (Santa Cruz, Calif., USA); anti-GAPDH and anti-α9-nAChR antibodies were from Abcam (Cambridge, UK); antiphospho AKT (Ser^473), anti-c-Jun, and anti-c-Fos were from Cell Signaling Technology (Beverly, Mass., USA). The secondary antibodies, alkaline phosphatase-coupled anti-mouse, and anti-rabbit IgG were purchased from Santa Cruz Biotechnology. The specific protein complexes were identified with the chromogenic substrates nitro blue tetrazolium, and 5-bromo-4-chloro-3-indolyl-phosphate from KPL (Gaithersburg, Md., USA). In each experiment, proteins were also probed with anti-GAPDH antibodies as a protein-loading control.
# [4] = test system: α9-nAChR mRNA; experiment: α9-nAChR mRNA by RT-PCR / real-time PCR in MCF-7 cells; assay type: cell-based, human; conditions: 24 h
# Method: Total RNA was isolated from human cell lines using TRIzol (Invitrogen, Carlsbad, Calif., USA) according to the manufacturer's protocol. The α9-nAChR subunit-specific primers were synthesized by MB Mission BioTech (Taipei, Taiwan) as described in the previous reports (Chen, C. S., Lee, C. H., Hsieh, C. D., Ho, C. T. et al., Breast Cancer Res. Treat. 2010; Shih, Y. L., Liu, H. C., Chen, C. S., Hsu, C. H. et al., J. Agric. Food Chem. 2010, 58, 235-241). The PCR amplicons were analyzed on 1.2% agarose gels (Amresco, Solon, Ohio, USA) stained with ethidium bromide. The α9-nAChR mRNA intensity was measured and normalized to β-glucuronidase expression. Pictures of the bands were taken using an INFINITY-α digital imaging system (Vilber Lourmat, France), and band intensities were determined using PhotoCapt Version 11.01 software.
# [5] = molecular target: T1, α9-nAChR (Homo sapiens, UniProt Q9UGM1); experiment: [^3H]-Nic equilibrium binding in MCF-7 cells
# T1 construct: breast cancer cell proliferation induced by Nic could be mediated through endogenous α9-nAChR; endogenous in cells; host or cells: MCF-7 cell monolayers: wild type, scramble control (Sc) and α9-nAChR siRNA knockdown (Si) clones
# Method: L-(−)-[N-methyl-^3H]-Nic ([^3[H]-Nic) (71-75 Ci/mmol) was purchased from Dupont/NEN Research Products (Boston, Mass., USA), and free-base Nic (99% pure) was purchased from The Eastman Kodak (Rochester, N.Y., USA). To study the uptake of [^3H]-Nic in MCF-7 cell monolayers (2×10^6 cells/well), cells were rinsed three times with a buffer containing 140 mM NaCl, 5.4 mM KCl, 1.8 mM CaCl2, 0.8 mM Mg504, 5 mM glucose, and 25 mM Hepes/Tris (pH 7.4). […] Nonspecific binding was determined by the addition of […] Nic. Total binding was evaluated for each concentration in quintuplicate, and blanks were determined in triplicate. The uptake of [^3H]-Nic was halted by aspiration of the uptake medium and washing of the wells three times with ice-cold buffer. The cells were lysed in 1 mL of 0.5% Triton X-100, and aliquots of the cell lysates were transferred to scintillation vials to determine the incorporated radioactivity by scintillation counting. Inhibition studies were carried out by adding various concentrations of unlabeled compounds to the uptake medium.
# T1 sequence (Q9UGM1 26-479 limits assumed): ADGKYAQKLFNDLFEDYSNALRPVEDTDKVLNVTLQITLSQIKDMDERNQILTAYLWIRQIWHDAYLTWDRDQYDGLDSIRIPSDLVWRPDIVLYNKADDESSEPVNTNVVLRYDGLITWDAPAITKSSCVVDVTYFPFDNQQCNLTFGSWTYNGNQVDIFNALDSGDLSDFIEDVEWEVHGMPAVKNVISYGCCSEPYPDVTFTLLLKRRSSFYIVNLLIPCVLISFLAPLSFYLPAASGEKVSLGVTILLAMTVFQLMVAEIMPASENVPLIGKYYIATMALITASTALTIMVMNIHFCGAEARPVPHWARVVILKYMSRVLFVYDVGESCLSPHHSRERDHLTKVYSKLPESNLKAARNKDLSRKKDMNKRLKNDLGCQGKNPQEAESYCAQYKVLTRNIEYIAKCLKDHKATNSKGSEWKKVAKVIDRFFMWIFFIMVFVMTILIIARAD
smiles,measurement,setting,value
"O=C(O[C@@H]1Cc2c(O)cc(O)cc2O[C@@H]1c1cc(O)c(O)c(O)c1)c1cc(O)c(O)c(O)c1 [EGCG, (−)-epigallocatechin-3-gallate]",Nic- and E2-induced α9-nAChR promoter luciferase activity,[1],significantly reduces
same,Nic-induced cellular proliferation effects in (C) and (Sc) cells,"[2]; EGCG 10 μM, 24 h pretreatment, then Nic 10 μM 24 h",reversed
same,Nic-stimulated proliferation,"[2]; MCF-7, EGCG 10-25 μM, 24 h pretreatment, dose-dependent",blocked
same,cell proliferation in Nic-treated α9-nAChR (Si) cells compared with Sc cells,[2]; combined treatment with EGCG 10 μM and Nic 10 μM,profoundly inhibited
same,pAKT protein expression induced by either E2 or Nic,[3],significantly inhibited
same,α9-nAChR mRNA in Nic-treated cells,"[4]; EGCG 1 μM with Nic 10 μM, RT-PCR",downregulated
same,Nic- or E2-induced α9-nAChR mRNA upregulation (real-time PCR),"[4]; EGCG 10 μM, Nic 10 μM or E2 10 nM",completely attenuated
same,[^3H]-Nic binding activity in α9-nAChR (Si) cells compared with Sc or wild-type cells,[5]; EGCG 10 μM 24 h pretreatment,profoundly inhibited
same,inhibition of [^3H]-Nic binding activity in (Si) cells compared with Sc or wild-type cells,[5]; EGCG pretreatment,> 90%
same,"[^3H]-Nic binding activity, EGCG pretreated then washed group","[5]; MCF-7, EGCG 24 h, wash, then [^3H]-Nic 24 h",not significantly inhibited
same,"[^3H]-Nic binding activity, EGCG cotreated group","[5]; MCF-7, [^3H]-Nic + EGCG cotreatment 24 h",not significantly inhibited
same,"relative [^3H]-Nic binding activity, EGCG pretreated group","[5]; wild-type MCF-7, EGCG 10 μM 24 h, then [^3H]-Nic cotreatment 24 h",significantly blocked; also recorded: profoundly inhibited
